{"source": "patent US11236055B2", "about": "(Venenum Biodesign, LLC, priority 2016, dated 2022)", "key": {"human TGR5 receptor": {"molecular_target": "T1, human TGR5 receptor (Homo sapiens, UniProt Q8TDU6)", "T1 construct": "host or cells: CHO-K1 (hTGR5-CHO cells)", "T1 sequence (Q8TDU6 1-330)": "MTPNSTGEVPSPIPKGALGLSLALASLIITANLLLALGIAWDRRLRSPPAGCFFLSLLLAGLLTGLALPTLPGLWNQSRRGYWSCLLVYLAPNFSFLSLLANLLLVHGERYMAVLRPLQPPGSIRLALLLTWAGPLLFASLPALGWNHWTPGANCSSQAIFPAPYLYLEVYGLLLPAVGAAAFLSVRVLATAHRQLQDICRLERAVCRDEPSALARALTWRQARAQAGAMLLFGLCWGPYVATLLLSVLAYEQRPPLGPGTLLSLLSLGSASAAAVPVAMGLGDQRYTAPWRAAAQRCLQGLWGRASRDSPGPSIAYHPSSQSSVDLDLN", "assay": "Human TGR5 cAMP production assay", "assay_type": "cell-based", "conditions": "human TGR5, luminescent cAMP assay; coded A-D; read-out: Human TGR5 Lum. cAMP Activity (EC50)", "in_short": "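CHO-K1 cells stably expressing human TGR5, with IBMX and cAMP antibody, were exposed to half-log serially diluted compound for 1 h at room temperature. cAMP measured by enzyme-fragment complementation luminescence (XS+ kit) after overnight incubation; EC50 values reported.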"}, "mouse TGR5 receptor": {"molecular_target": "T2, mouse TGR5 receptor (Mus musculus, UniProt Q80SS6)", "T2 construct": "expressed in transfected cells; host or cells: HEK293-EBNA (293 c18, ATCC CRL10852), Hygromycin B selection", "T2 sequence (Q80SS6 1-329)": "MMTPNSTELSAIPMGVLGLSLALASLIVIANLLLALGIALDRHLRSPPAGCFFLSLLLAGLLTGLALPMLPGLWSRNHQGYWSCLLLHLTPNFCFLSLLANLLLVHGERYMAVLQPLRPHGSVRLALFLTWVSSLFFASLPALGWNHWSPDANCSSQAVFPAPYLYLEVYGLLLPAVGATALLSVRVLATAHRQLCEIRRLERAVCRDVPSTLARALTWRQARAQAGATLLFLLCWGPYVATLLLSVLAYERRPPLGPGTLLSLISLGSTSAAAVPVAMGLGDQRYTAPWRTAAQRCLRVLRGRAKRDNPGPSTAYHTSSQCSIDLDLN", "assay": "Mouse TGR5 cAMP production assay (luminescent, DiscoveRx cAMP XS+)", "assay_type": "cell-based", "conditions": "HEK293-EBNA cells overexpressing mouse TGR5, luminescent cAMP XS+; coded A-D; read-out: Mouse TGR5 Lum. cAMP Activity (EC50)", "excerpt": "Mouse TGR5 cAMP Production Assay\nWe evaluated compounds of the present invention for their ability to induce cAMP production in HEK-EBNA cells overexpressing the mouse TGR5 receptor. Human embryonic kidney cells (HEK293-EBNA) stably expressing mouse TGR5 receptor were established using the following procedure. Specifically, a commercially-obtained gene encoding mouse TGR5 (accession number BC116914) from Thermo Scientific (Waltham, Mass.) was cloned into an episomal expression vector. The resulting expression plasmid was then transfected into 293 c18 (ATCC® CRL10852™) cells, which express the Epstein-Barr virus nuclear antigen EBNA1 and can support the replication of episomal vectors. Selection for the plasmid was maintained with Hygromycin B. Cells were cultured and maintained in DMEM (Sigma; cat #6429) supplemented with 10% Fetal Bovine Serum, 1% penicillin/streptomycin, 2 mM L-alanine L-glutamine (GlutaMax), and 250 μg/mL Hygromycin.\nTwo cAMP production assays were developed.\n1. Luminescent cAMP Production Assay\nIn this first cAMP production assay, the cAMP production was measured using DiscoveRx's cAMP XS+ kit following the manufacturer's recommended protocol.\nBriefly, HEK293-EBNA cells stably overexpressing mouse TGR5 were harvested using non-enzymatic cell dissociation buffer (Sigma-Aldrich, St. Louis, Mo.), spun down, then resuspended in serum-free DMEM with 500 μM IBMX at a density of 1.25×10^6 cells/mL. 500 μL of cAMP antibody solution was added to […] of cell suspension and incubated at room temperature for 20 min.\nTest compounds were serially diluted (half-log dilutions) in DMSO and then further diluted 1:50 in PBS, 10 mM HEPES buffer. 2 μL of serially diluted compound was added to a 384-well low volume plate (Greiner cat #784075) and centrifuged briefly. 2 μL of the cell/cAMP antibody mixture was then added to each compound-containing well and allowed to incubate at room temperature for one (1) hour. Following incubation, the XS+ kits' ED/Lysis/CL Substrate Working Solution was prepared following the manufacturer's recommended protocol and 4 μL was added to each well of the plate. The plate was then incubated for one (1) hour at room temperature. Following incubation, 4 μL of (Enzyme Acceptor) EA reagent was added to the plate and allowed to incubate overnight at room temperature. Luminescent signal was then detected using the Viewlux instrument (Perkin-Elmer, Waltham, Mass.).\nIn Table 33, EC50 values for both human and mouse cells were determined according to the TGR5 cAMP assays described above."}}, "data": [{"smiles": "Nc1cnccc1-c1cccc(CNS(=O)(=O)c2cccc(C(F)(F)F)c2)c1", "note": "[Compound 1BG]", "values": [{"measurement": "EC50", "setting": "human TGR5 receptor", "value": "0.1 to 0.999", "unit": "µM"}, {"measurement": "EC50", "setting": "mouse TGR5 receptor", "value": "1 to 30", "unit": "µM"}]}, {"smiles": "O=S(=O)(NCc1cccc(-c2ccncc2C(F)(F)F)c1)c1cccc(C(F)(F)F)c1", "note": "[Compound 1BH]", "values": [{"measurement": "EC50", "setting": "human TGR5 receptor", "value": "1 to 30", "unit": "µM"}, {"measurement": "EC50", "setting": "mouse TGR5 receptor", "value": "1 to 30", "unit": "µM"}]}, {"smiles": "Cc1cc(-c2cccc(CNS(=O)(=O)c3cccc(C(F)(F)F)c3)c2)ncn1", "note": "[Compound 1BI]", "values": [{"measurement": "EC50", "setting": "human TGR5 receptor", "value": "1 to 30", "unit": "µM"}, {"measurement": "EC50", "setting": "mouse TGR5 receptor", "value": "> 30", "unit": "µM"}]}, {"smiles": "O=S(=O)(NCc1cccc(-c2cc(C(F)(F)F)ncn2)c1)c1cccc(C(F)(F)F)c1", "note": "[Compound 1BJ]", "values": [{"measurement": "EC50", "setting": "human TGR5 receptor", "value": "1 to 30", "unit": "µM"}, {"measurement": "EC50", "setting": "mouse TGR5 receptor", "value": "> 30", "unit": "µM"}]}, {"smiles": "O=S(=O)(NCc1cccc(-c2ccncn2)c1)c1cccc(C(F)(F)F)c1", "note": "[Compound 1BK]", "values": [{"measurement": "EC50", "setting": "human TGR5 receptor", "value": "1 to 30", "unit": "µM"}, {"measurement": "EC50", "setting": "mouse TGR5 receptor", "value": "> 30", "unit": "µM"}]}, {"smiles": "CC(C)(NS(=O)(=O)c1ccccc1C(F)(F)F)c1cccc(-c2ccncc2O)c1", "note": "[Compound 1BM]", "values": [{"measurement": "EC50", "setting": "human TGR5 receptor", "value": "< 0.1", "unit": "µM"}, {"measurement": "EC50", "setting": "mouse TGR5 receptor", "value": "0.1 to 0.999", "unit": "µM"}]}, {"smiles": "COc1cnccc1-c1cccc(C2(NS(=O)(=O)c3cccc(C(F)(F)F)c3)CC2)c1", "note": "[Compound 1BN]", "values": [{"measurement": "EC50", "setting": "human TGR5 receptor", "value": "0.1 to 0.999", "unit": "µM"}, {"measurement": "EC50", "setting": "mouse TGR5 receptor", "value": "0.1 to 0.999", "unit": "µM"}]}, {"smiles": "COc1cnccc1-c1cccc(CNS(=O)(=O)c2cccc(C(F)(F)F)c2)n1", "note": "[Compound 1BQ]", "values": [{"measurement": "EC50", "setting": "human TGR5 receptor", "value": "1 to 30", "unit": "µM"}, {"measurement": "EC50", "setting": "mouse TGR5 receptor", "value": "1 to 30", "unit": "µM"}]}, {"smiles": "COc1cnccc1-c1ccnc(CNS(=O)(=O)c2cccc(C(F)(F)F)c2)c1", "note": "[Compound 1BR]", "values": [{"measurement": "EC50", "setting": "human TGR5 receptor", "value": "1 to 30", "unit": "µM"}, {"measurement": "EC50", "setting": "mouse TGR5 receptor", "value": "1 to 30", "unit": "µM"}]}, {"smiles": "O=S(=O)(NCc1ccc(Cl)c(-c2ccncc2)c1)c1cccc(C(F)(F)F)c1", "note": "[Compound 1BU]", "values": [{"measurement": "EC50", "setting": "human TGR5 receptor", "value": "1 to 30", "unit": "µM"}, {"measurement": "EC50", "setting": "mouse TGR5 receptor", "value": "> 30", "unit": "µM"}]}, {"smiles": "O=S(=O)(NCc1cc(Cl)cc(-c2ccncc2)c1)c1cccc(C(F)(F)F)c1", "note": "[Compound 1BV]", "values": [{"measurement": "EC50", "setting": "human TGR5 receptor", "value": "1 to 30", "unit": "µM"}, {"measurement": "EC50", "setting": "mouse TGR5 receptor", "value": "> 30", "unit": "µM"}]}, {"smiles": "Cc1ccc(C(C)(C)NS(=O)(=O)c2cccc(C(F)(F)F)c2)cc1-c1ccncc1", "note": "[Compound 1BW]", "values": [{"measurement": "EC50", "setting": "human TGR5 receptor", "value": "1 to 30", "unit": "µM"}, {"measurement": "EC50", "setting": "mouse TGR5 receptor", "value": "> 30", "unit": "µM"}]}, {"smiles": "CCC(NS(=O)(=O)c1cccc(C(F)(F)F)c1)c1cccc(-c2ccncc2)c1", "note": "(centres unmarked) [Compound 1BZ]", "values": [{"measurement": "EC50", "setting": "human TGR5 receptor", "value": "0.1 to 0.999", "unit": "µM"}, {"measurement": "EC50", "setting": "mouse TGR5 receptor", "value": "1 to 30", "unit": "µM"}]}, {"smiles": "Cc1cccc(S(=O)(=O)NCc2cccc(-c3c(C)noc3C)c2)c1", "note": "[Compound 2, N-(3-(3,5-dimethylisoxazol-4-yl)benzyl)-3-methylbenzenesulfonamide]", "values": [{"measurement": "EC50", "setting": "human TGR5 receptor", "value": "1 to 30", "unit": "µM"}, {"measurement": "EC50", "setting": "mouse TGR5 receptor", "value": "1 to 30", "unit": "µM"}]}, {"smiles": "Cc1noc(C)c1-c1cccc(CNS(=O)(=O)c2cccc(Cl)c2)c1", "note": "[Compound 2AA]", "values": [{"measurement": "EC50", "setting": "human TGR5 receptor", "value": "1 to 30", "unit": "µM"}, {"measurement": "EC50", "setting": "mouse TGR5 receptor", "value": "1 to 30", "unit": "µM"}]}, {"smiles": "COc1cccc(S(=O)(=O)NCc2cccc(-c3c(C)noc3C)c2)c1", "note": "[Compound 2AB]", "values": [{"measurement": "EC50", "setting": "human TGR5 receptor", "value": "1 to 30", "unit": "µM"}, {"measurement": "EC50", "setting": "mouse TGR5 receptor", "value": "1 to 30", "unit": "µM"}]}, {"smiles": "Cc1noc(C)c1-c1cccc(CNS(=O)(=O)c2ccccc2C(F)(F)F)c1", "note": "[Compound 2AC]", "values": [{"measurement": "EC50", "setting": "human TGR5 receptor", "value": "1 to 30", "unit": "µM"}, {"measurement": "EC50", "setting": "mouse TGR5 receptor", "value": "1 to 30", "unit": "µM"}]}, {"smiles": "Cc1noc(C)c1-c1cccc(CNS(=O)(=O)c2ccc(Cl)c(C(F)(F)F)c2)c1", "note": "[Compound 2AD]", "values": [{"measurement": "EC50", "setting": "human TGR5 receptor", "value": "1 to 30", "unit": "µM"}, {"measurement": "EC50", "setting": "mouse TGR5 receptor", "value": "> 30", "unit": "µM"}]}, {"smiles": "Cc1noc(C)c1-c1cccc(CNS(=O)(=O)c2ccc(F)c(C(F)(F)F)c2)c1", "note": "[Compound 2AE]", "values": [{"measurement": "EC50", "setting": "human TGR5 receptor", "value": "1 to 30", "unit": "µM"}, {"measurement": "EC50", "setting": "mouse TGR5 receptor", "value": "> 30", "unit": "µM"}]}, {"smiles": "Cc1noc(C)c1-c1cccc(CNS(=O)(=O)c2cc(C(F)(F)F)ccc2F)c1", "note": "[Compound 2AF]", "values": [{"measurement": "EC50", "setting": "human TGR5 receptor", "value": "1 to 30", "unit": "µM"}, {"measurement": "EC50", "setting": "mouse TGR5 receptor", "value": "> 30", "unit": "µM"}]}, {"smiles": "Cc1noc(C)c1-c1cccc(CNS(=O)(=O)c2cc(F)cc(C(F)(F)F)c2)c1", "note": "[Compound 2AG]", "values": [{"measurement": "EC50", "setting": "human TGR5 receptor", "value": "1 to 30", "unit": "µM"}, {"measurement": "EC50", "setting": "mouse TGR5 receptor", "value": "> 30", "unit": "µM"}]}, {"smiles": "Cc1noc(C)c1-c1cccc(CNS(=O)(=O)c2cc(C(F)(F)F)cc(C(F)(F)F)c2)c1", "note": "[Compound 2AH]", "values": [{"measurement": "EC50", "setting": "human TGR5 receptor", "value": "1 to 30", "unit": "µM"}, {"measurement": "EC50", "setting": "mouse TGR5 receptor", "value": "> 30", "unit": "µM"}]}]}
